We go through eleven molecules from patent publication US20050124626A1, “Novel compounds” (priority 2002, published 2005).

This assay concerns the target T1, human cloned 5-HT6 receptors (Homo sapiens, UniProt P50406).
T1 construct: expressed in transfected cells
Kind of assay: 5-HT6 receptor affinity following the procedures outlined in WO98/27081. As to conditions: read-out: pKi values at human cloned 5-HT6 receptors (converted). It counts as binding. An excerpt: Compounds can be tested following the procedures outlined in WO98/27081.

Where a name gives a salt, the structure may show the parent alone.

T1 sequence (P50406 whole entry): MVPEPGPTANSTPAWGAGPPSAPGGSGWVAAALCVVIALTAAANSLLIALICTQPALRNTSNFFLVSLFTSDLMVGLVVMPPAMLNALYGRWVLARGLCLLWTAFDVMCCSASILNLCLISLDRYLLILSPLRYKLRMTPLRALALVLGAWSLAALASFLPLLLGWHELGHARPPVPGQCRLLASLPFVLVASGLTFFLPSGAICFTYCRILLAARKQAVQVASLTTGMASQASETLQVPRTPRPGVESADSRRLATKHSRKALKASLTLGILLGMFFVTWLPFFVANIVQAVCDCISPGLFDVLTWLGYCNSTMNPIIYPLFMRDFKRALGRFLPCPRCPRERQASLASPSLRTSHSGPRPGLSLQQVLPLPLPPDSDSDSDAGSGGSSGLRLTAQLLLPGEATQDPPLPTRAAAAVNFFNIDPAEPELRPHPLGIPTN

As to `O=S(=O)(c1ccccc1)c1c[nH]c2c(N3CCNCC3)nccc12` [Example E6, 7-piperazin-1-yl-3-phenylsulfonyl-1H-pyrrolo[2,3-c]pyridine hydrochloride], the Ki is below 0.0316 µM.

With `O=S(=O)(c1ccccc1F)c1c[nH]c2c(N3CCNCC3)nccc12` [Example E7, 3-(2-Fluorophenyl)sulfonyl-7-piperazin-1-yl-1H-pyrrolo[2,3-c]pyridine hydrochloride], the Ki is below 0.0316 µM.

`O=S(=O)(c1cccc(F)c1)c1c[nH]c2c(N3CCNCC3)nccc12` [Example E8, 3-(3-Fluorophenyl)sulfonyl-7-piperazin-1-yl-1H-pyrrolo[2,3-c]pyridine hydrochloride]: the Ki was below 0.0316 µM.

With `Cc1cc(N2CCNCC2)c2ccc(S(=O)(=O)c3ccccc3)cc2n1` [Example E9, 2-Methyl-4-piperazin-1-yl-7-phenylsulfonylquinoline hydrochloride], the Ki was below 0.01 µM.

For the molecule `O=S(=O)(c1ccccc1)c1ccnc2c(N3CCNCC3)cccc12` [Example E10, 4-Phenylsulfonyl-8-piperazin-1-yl quinoline], the Ki is below 0.01 µM.

On to `O=S(=O)(c1ccccc1)c1ccnc2c(N3CCNCC3)cccc12` [Example E11, 4-Phenylsulfonyl-8-piperazin-1-yl-quinoline hydrochloride], for which the Ki was below 0.01 µM.

As for `Cc1cc(S(=O)(=O)c2ccccc2)c2cccc(N3CCNCC3)c2n1` [Example E12, 2-Methyl-4-phenylsulfonyl-8-piperazin-1-yl-quinoline], the Ki is below 0.01 µM.

As to `Cc1cc(S(=O)(=O)c2ccccc2)c2cccc(N3CCNCC3)c2n1` [Example E13, 2-Methyl-4-phenylsulfonyl-8-piperazin-1-ylquinoline hydrochloride], the Ki was below 0.01 µM.

With `Cc1cc(S(=O)(=O)c2ccccc2F)c2cccc(N3CCNCC3)c2n1` [Example E14], the Ki is below 0.01 µM.

For `Cc1cc(S(=O)(=O)c2cccc(F)c2)c2cccc(N3CCNCC3)c2n1` [Example E15], the Ki is below 0.01 µM.

`Cc1cc(S(=O)(=O)c2cccc(Cl)c2)c2cccc(N3CCNCC3)c2n1` [Example E16]: the Ki was below 0.01 µM.
